Here are results for 19 molecules from patent US10899754B2, “Modulators of indoleamine 2,3-dioxygenase” (GLAXOSMITHKLINE INTELLECTUAL PROPERTY DEVELOPMENT LIMITED, priority 2016, dated 2021).

Holding throughout (assay type): cell-based
For data set [1], the system named is human epithelial HeLa cells. As to the kind of experiment: HeLa cytotoxicity assay (CellTiter-Glo). The settings on record: pCC50. In short, it runs like this:
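HeLa cells (5,000/well) stimulated with 10 nM IFN-γ, exposed to 11-point 3-fold compound dilutions for 2 days at 37 °C; viability by CellTiter-Glo ATP luminescence. Normalized to cell-free (100% cytotoxicity) and stimulated-cell DMSO (0%) controls; four-parameter fit gives pCC50.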
In general terms: Cellular ATP, detected with luciferase, serves as a proxy for viable cell number.

The subject of data set [2] is human peripheral blood mononuclear cells (PBMC). As to the kind of experiment: PBMC cytotoxicity assay (CellTiter-Glo). The settings on record: 2 days, pCC50. The method, boiled down: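 Human PBMC (50,000 cells/well) stimulated with IFN-γ 100 ng/ml and LPS 50 ng/ml were exposed to 11-point 3-fold compound dilutions for 2 days at 37 °C, 5% CO2. Viability read by CellTiter-Glo ATP luminescence and normalized to no-cell and stimulated-DMSO controls. XC50 derived by four-parameter fit.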

For data set [3], the target named is T1, indoleamine 2, 3-dioxygenase (IDO1) (Homo sapiens, UniProt P14902). As to the kind of experiment: IDO1 HeLa RapidFire MS assay (kynurenine detection by mass spectrometry). Further details: to induce the expression of indoleamine 2, 3-dioxygenase (IDO1). The note with it: HeLa cells, pIC50, read-out: IDO1_HELA_PXC50 (converted). The method, boiled down: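 Compound potency reported as pIC50 from kynurenine/internal-standard ratio (RapidFire MS) in supernatant of IFN-γ-induced (10 nM) HeLa cells, 5,000 per well, after 2 days' treatment with 11-point dilutions. Cytotoxicity in the same format by luminescent ATP detection, reported as pCC50.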
T1 sequence (P14902 whole entry): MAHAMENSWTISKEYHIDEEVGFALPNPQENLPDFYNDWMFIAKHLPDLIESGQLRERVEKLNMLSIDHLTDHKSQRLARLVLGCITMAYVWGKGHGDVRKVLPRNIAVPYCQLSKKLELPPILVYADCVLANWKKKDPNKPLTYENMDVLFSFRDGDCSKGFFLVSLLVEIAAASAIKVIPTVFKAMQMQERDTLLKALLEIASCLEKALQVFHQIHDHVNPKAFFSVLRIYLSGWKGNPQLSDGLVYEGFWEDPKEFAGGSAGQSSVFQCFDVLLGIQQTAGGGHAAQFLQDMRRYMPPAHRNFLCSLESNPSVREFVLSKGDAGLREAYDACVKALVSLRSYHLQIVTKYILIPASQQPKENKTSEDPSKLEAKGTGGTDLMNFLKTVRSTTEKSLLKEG

Data set [4] concerns the target T1, indoleamine 2, 3-dioxygenase (IDO1). Kind of data set: IDO1 PBMC RapidFire MS assay (kynurenine detection by mass spectrometry). Details: to induce the expression of indoleamine 2, 3-dioxygenase (IDO1); host or cells: human PBMC stimulated with IFN-gamma and LPS. The settings on record: human PBMC stimulated with IFN-γ and LPS, 2 days, pIC50, read-out: PBMC PXC50 (converted). In short, it runs like this: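 PBMCs (50,000 cells/well) stimulated with IFN-γ 100 ng/ml plus LPS 50 ng/ml, treated with 11-point 3-fold compound series for 2 days at 37° C. Supernatant kynurenine measured by RapidFire MS, normalised to internal standard; parallel cytotoxicity by CellTiter-Glo luminescence; curves fitted for XC50.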

In data set [1], `CC(C)CN(c1ccc(C(C)CC(=O)O)cc1NC1=NC(=O)[C@H](c2ccccc2)N1)C1CCCCC1` (stereo partly drawn) [example 165, 3-{4-[cyclohexyl(2-methylpropyl)amino]-3-{[(5S)-4-oxo-5-phenyl-4,5-dihydro-1H-imidazol-2-yl]amino}phenyl}butanoic acid] registered an HELA_IDO1_TOX_PXC50 of under 5. Moreover, the “PBMC TOX PXC50” value in data set [2] is under 5. For the same molecule, the IC50 in data set [3] is 794 nM; in data set [4] it was 1580 nM.
Molecule `CC(C)CN(c1ccc([C@H](C)CC(=O)O)cc1Nc1cnc(Cl)cn1)[C@H]1CC[C@H](O)CC1` [Example 45, (R)-3-(3-((5-chloropyrazin-2-yl)amino)-4-(((1r,4R)-4-hydroxycyclohexyl) (isobutyl)amino)phenyl)butanoic Acid] gave an HELA_IDO1_TOX_PXC50 in data set [1] of under 5. The “PBMC TOX PXC50” value in data set [2] is under 5. The IC50 in data set [3] is 3.98 nM; in data set [4], 1.26 nM.
On to `CC(C)CN(CC(C)C)c1ccc(C2CC2C(=O)O)cc1Nc1nc(C(F)(F)F)ns1` (stereo not shown) [example 174, 2-{4-[bis(2-methylpropyl)amino]-3-{[3-(trifluoromethyl)-1,2,4-thiadiazol-5-yl]amino}phenyl}cyclo-propane-1-carboxylic acid], for which the HELA_IDO1_TOX_PXC50 in data set [1] is given as under 5. Moreover, the “PBMC TOX PXC50” value in data set [2] is reported as under 5. Moreover, the IC50 in data set [3] and in data set [4] was 12.6 nM each time.
On to `COCCc1nnc(Nc2cc([C@H](C)CC(=O)O)ccc2N(CC(C)C)C2CCCCC2)[nH]1` [example 214, (3R)-3-{4-[cyclohexyl(2-methylpropyl)amino]-3-{[5-(2-methoxyethyl)-4H-1,2,4-triazol-3-yl]amino}phenyl}butanoic acid], for which the HELA_IDO1_TOX_PXC50 in data set [1] is on record as under 5. Moreover, the “PBMC TOX PXC50” value in data set [2] is reported as under 5. Also, the IC50 in data set [3] and in data set [4] was 12.6 nM throughout.
`COCC(=O)N1CCC(N(CC(C)C)c2ccc([C@H](C)CC(=O)O)cc2Nc2nc(C(F)(F)F)ns2)CC1` [Example 72, (R)-3-(4-(isobutyl(1-(2-methoxyacetyl)piperidin-4-yl)amino)-3-((3-(trifluoromethyl)-1,2,4-thiadiazol-5-yl)amino)phenyl)butanoic Acid] displayed an HELA_IDO1_TOX_PXC50 in data set [1] of under 5. Further, the “PBMC TOX PXC50” value in data set [2] was under 5. In addition, the IC50 in data set [3] was 39.8 nM; in data set [4] it was 10 nM.
`CC(C)CN(c1ccc([C@H](C)CC(=O)O)cc1Nc1cccc(C(F)(F)F)n1)C1CCCCC1` [example 172, (3R)-3-{4-[cyclohexyl(2-methylpropyl)amino]-3-{[6-(trifluoromethyl)pyridin-2-yl]amino}phenyl}butanoic acid] came in with an HELA_IDO1_TOX_PXC50 in data set [1] of under 5. For the same molecule, in data set [2], the “PBMC TOX PXC50” value is reported as under 5. Moreover, the IC50 is 79.4 nM in data set [3] and 39.8 nM in data set [4].
For `CC(C)CN(c1ccc(-c2ccccc2C(=O)O)cc1Nc1nc2ccccc2o1)C1CCOCC1` [example 291, 3′-[(1,3-benzoxazol-2-yl)amino]-4′-[(2-methylpropyl)(oxan-4-yl)amino]-[1,1′-biphenyl]-2-carboxylic acid], the HELA_IDO1_TOX_PXC50 in data set [1] is recorded as under 5. Further, the “PBMC TOX PXC50” value in data set [2] is recorded as under 5. In addition, the results for the IC50 in data set [3] and in data set [4] were 100 nM and 126 nM, respectively.
The molecule `CNC(=O)N1CCC(N(CC(C)C)c2ccc([C@H](C)CC(=O)O)cc2Nc2nc(C(F)(F)F)ns2)CC1` [example 262, (3R)-3-(4-{[1-(methylcarbamoyl)piper-idin-4-yl](2-methylpropyl)amino}-3-{[3-(trifluoromethyl)-1,2,4-thiadiazol-5-yl]amino}phenyl)butanoic acid] showed an HELA_IDO1_TOX_PXC50 in data set [1] of under 5. Besides, in data set [2], the “PBMC TOX PXC50” value is recorded as under 5. For the same molecule, the IC50 in data set [3] was 100 nM; in data set [4] it was 20 nM.
In data set [1], `CC(C)CN(c1ccc(C(C)OCC(=O)O)cc1Nc1nc2ccccc2o1)C1CCCCC1` (stereo not shown) [example 170, 2-(1-{3-[(1,3-benzoxazol-2-yl)amino]-4-[cyclohexyl(2-methylpropyl)amino]phenyl}ethoxy)acetic acid] had an HELA_IDO1_TOX_PXC50 of under 5. The “PBMC TOX PXC50” value in data set [2] is under 5. For the same molecule, the results for the IC50 in data set [3] and in data set [4] were 501 nM and 316 nM, respectively.
In data set [1], `CC(C)CN(c1ccc([C@H](C)CC(=O)O)cc1Nc1ccc(C(F)(F)F)cn1)C1CCCCC1` [Example 76, (R)-3-(4-(cyclohexyl(isobutyl)amino)-3-((5-(trifluoromethyl)pyridin-2-yl)amino)phenyl)butanoic Acid] gave an HELA_IDO1_TOX_PXC50 of under 5. In data set [2], the “PBMC TOX PXC50” value was under 5. Further, the IC50 was 3.98 nM in data set [3] and 2.51 nM in data set [4].
`CC(C)CN(c1ccc(-c2ccccc2C(=O)O)cc1Nc1nc(C(F)(F)F)ns1)[C@H]1CC[C@@H](O)CC1` [example 279, 4′-[(2-methylpropyl)[(1s,4s)-4-hydroxycyclohexyl]amino]-3′-{[3-(trifluoromethyl)-1,2,4-thiadiazol-5-yl]amino}-[1,1′-biphenyl]-2-carboxylic acid]: the HELA_IDO1_TOX_PXC50 in data set [1] is under 5. Besides, the “PBMC TOX PXC50” value in data set [2] is recorded as under 5. Besides, the IC50 in data set [3] was 100 nM; in data set [4], 20 nM.
Take `CC(C)CN(c1ccc(C(C)CC(=O)O)cc1Nc1nc(C(F)(F)F)ns1)C1CCOCC1` (stereo not shown) [example 202, 3-{4-[(2-methylpropyl)(oxan-4-yl)amino]-3-{[3-(trifluoromethyl)-1,2,4-thiadiazol-5-yl]amino}phenyl}butanoic acid]: the HELA_IDO1_TOX_PXC50 in data set [1] is recorded as under 5. In addition, the “PBMC TOX PXC50” value in data set [2] is on record as under 5. The IC50 in data set [3] was 3.16 nM; in data set [4], 1.58 nM.
In data set [1], `CC(C)CN(CC(C)C)c1ccc([C@H](C)CC(=O)O)cc1Nc1nnc(C(F)(F)F)s1` [Example 87, (R)-3-(4-(diisobutylamino)-3-((5-(trifluoromethyl)-1,3,4-thiadiazol-2-yl)amino)phenyl)butanoic Acid] came in with an HELA_IDO1_TOX_PXC50 of under 5. For the same molecule, the “PBMC TOX PXC50” value in data set [2] was under 5. Also, the figures for the IC50 in data set [3] and in data set [4] were 7.94 nM and 3.98 nM, respectively.
Consider `Cc1nc(C)c(Nc2cc(C(C)CC(=O)O)ccc2N(CC(C)C)CC(C)C)s1` (stereo not shown) [example 139, 3-{4-[bis(2-methylpropyl)amino]-3-[(2,4-dimethyl-1,3-thiazol-5-yl)amino]phenyl}butanoic acid], for which the HELA_IDO1_TOX_PXC50 in data set [1] is recorded as under 5. Moreover, the “PBMC TOX PXC50” value in data set [2] is under 5. Besides, the IC50 in data set [3] and in data set [4] was over 10000 nM throughout.
In data set [1], `CC(C)CN(c1ccc(-c2ccccc2C(=O)O)cc1Nc1nc(C(F)(F)F)ns1)C1CCN(c2nc(C(F)(F)F)ns2)CC1` [Example 92, 4′-(isobutyl(1-(3-(trifluoromethyl)-1,2,4-thiadiazol-5-yl)piperidin-4-yl)amino)-3′-((3-(trifluoromethyl)-1,2,4-thiadiazol-5-yl)amino)-[1,1′-biphenyl]-2-carboxylic Acid] yielded an HELA_IDO1_TOX_PXC50 of under 5. Moreover, the “PBMC TOX PXC50” value in data set [2] was determined as 6.1. For the same molecule, the values for the IC50 in data set [3] and in data set [4] were 5.01 nM and 1 nM, respectively.
On to `CC(C)CN(c1ccc([C@H](C)CC(=O)O)cc1Nc1nnc(C(C)C)[nH]1)C1CCOCC1` [example 212, (3R)-3-{4-[(2-methylpropyl)(oxan-4-yl)amino]-3-{[5-(propan-2-yl)-4H-1,2,4-triazol-3-yl]amino}phenyl}butanoic acid], for which the HELA_IDO1_TOX_PXC50 in data set [1] was under 5. In addition, the “PBMC TOX PXC50” value in data set [2] is listed as under 5. The IC50 in data set [3] was 200 nM; in data set [4] it was 63.1 nM.
Turning to `CC(C)CN(CC(C)C)c1ccc(-c2ccccc2C(=O)O)cc1Nc1nc(Cl)ns1` [example 294, 4′-[bis(2-methylpropyl)amino]-3′-[(3-chloro-1,2,4-thiadiazol-5-yl)amino]-[1,1′-biphenyl]-2-carboxylic acid], the HELA_IDO1_TOX_PXC50 in data set [1] is recorded as under 5. Moreover, the “PBMC TOX PXC50” value in data set [2] is given as under 5. Besides, the IC50 in data set [3] is 39.8 nM; in data set [4] it was 20 nM.
With `CC(C)CN(c1ccc(C(C)(C)CC(=O)O)cc1Nc1ccc(Cl)cn1)C1CCOCC1` [Example 4, 3-(3-((5-chloropyridin-2-yl)amino)-4-(isobutyl(tetrahydro-2H-pyran-4-yl)amino)phenyl)-3-methylbutanoic Acid], the HELA_IDO1_TOX_PXC50 in data set [1] was under 5. In addition, the “PBMC TOX PXC50” value in data set [2] was under 5. Besides, the figures for the IC50 in data set [3] and in data set [4] were 6.31 nM and 3.98 nM, respectively.
Take `CC(C)CN(c1ccc([C@H](C)CC(=O)O)cc1Nc1nc(C2CC2)cs1)C1CCOCC1` [example 211, (3R)-3-{3-[(4-cyclopropyl-1,3-thiazol-2-yl)amino]-4-[(2-methylpropyl)(oxan-4-yl)amino]phenyl}butanoic acid]: in data set [1], the HELA_IDO1_TOX_PXC50 was under 5. Besides, the “PBMC TOX PXC50” value in data set [2] was under 5. Further, the IC50 in data set [3] was 25.1 nM; in data set [4] it was 20 nM.
